Experimental data taken from PubChem BioAssay AID1963421 (Molecular Pharmacology Branch, DTP, NCI, 2024).
pIC50: −log10 of the molar value. Values belong to the molecule of their own block, whether it stands above or below them.

System: 519858-162-T-J1-PDC complex spheroid growth, % test/control
Test: Anticancer human tumor 519858-162-T-J1-PDC patient-derived colon adenocarcinoma cell line growth inhibition [Asc]
Conditions: for pIC50: curve of first compound; for viability, T/C: stronger effect = lower value
Method in brief: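 Concentration series start at each agent's clinical Cmax, or at 10 microM when none is established, and drop in half-log steps; agents are applied alone or together to complex spheroids built with HUVEC and hMSC.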

[1] = second compound 0.00316 µM, first compound 0.0316 µM
[2] = second compound 0.00316 µM, first compound 0.1 µM
[3] = second compound 0.00316 µM, first compound 0.316 µM
[4] = second compound 0.00316 µM, first compound 1 µM
[5] = second compound 0.01 µM, first compound 0.0316 µM
[6] = second compound 0.01 µM, first compound 0.1 µM
[7] = second compound 0.01 µM, first compound 0.316 µM
[8] = second compound 0.01 µM, first compound 1 µM
[9] = second compound 0.0316 µM, first compound 0.0316 µM
[10] = second compound 0.0316 µM, first compound 0.1 µM
[11] = second compound 0.0316 µM, first compound 0.316 µM
[12] = second compound 0.0316 µM, first compound 1 µM
[13] = second compound 0.1 µM, first compound 0.0316 µM
[14] = second compound 0.1 µM, first compound 0.1 µM
[15] = second compound 0.1 µM, first compound 0.316 µM
[16] = second compound 0.1 µM, first compound 1 µM
[17] = second compound 0.316 µM, first compound 0.0316 µM
[18] = second compound 0.316 µM, first compound 0.1 µM
[19] = second compound 0.316 µM, first compound 0.316 µM
[20] = second compound 0.316 µM, first compound 1 µM
[21] = second compound 1 µM, first compound 0.0316 µM
[22] = second compound 1 µM, first compound 0.1 µM
[23] = second compound 1 µM, first compound 0.316 µM
[24] = second compound 1 µM, first compound 1 µM
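Note: seven day drug exposure begun three days after spheroid seeding.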
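Throughout, for viability, T/C: 100% = DMSO vehicle wells and lower values mean less viable spheroid.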

pIC50 (second compound 0.00316 µM): < 5.00
pIC50 (second compound 0.01 µM): < 5.00
pIC50 (second compound 0.0316 µM): < 5.00
pIC50 (second compound 0.1 µM): < 5.00
pIC50 (second compound 0.316 µM): < 5.00
pIC50 (second compound 1 µM): < 5.00
Structure (SMILES): C=C(F)C(=O)N1CCN(c2nc(OCC3CCCN3C)nc3c2CCN(c2cccc4cccc(Cl)c24)C3)CC1CC#N (stereo unspecified) + CNC(C)C(=O)NC1CN(S(=O)(=O)c2cccc(S(=O)(=O)N3CCC4CCC(C(=O)NC(c5ccccc5)c5ccccc5)N4C(=O)C(NC(=O)C(C)NC)C3)c2)CCC2CCC(C(=O)NC(c3ccccc3)c3ccccc3)N2C1=O
viability, T/C [1]: 102%
viability, T/C [2]: 86.8%
viability, T/C [3]: 102%
viability, T/C [4]: 92.7%
viability, T/C (second compound 0.00316 µM, first compound 3.16 µM): 94.8%
viability, T/C (second compound 0.00316 µM, first compound 10 µM): 113%
viability, T/C [5]: 104%
viability, T/C [6]: 83.7%
viability, T/C [7]: 91.2%
viability, T/C [8]: 82%
viability, T/C (second compound 0.01 µM, first compound 3.16 µM): 96.7%
viability, T/C (second compound 0.01 µM, first compound 10 µM): 108%
viability, T/C [9]: 94.7%
viability, T/C [10]: 83.7%
viability, T/C [11]: 86.3%
viability, T/C [12]: 93.4%
viability, T/C (second compound 0.0316 µM, first compound 3.16 µM): 95.7%
viability, T/C (second compound 0.0316 µM, first compound 10 µM): 107%
viability, T/C [13]: 93.1%
viability, T/C [14]: 91.2%
viability, T/C [15]: 93.3%
viability, T/C [16]: 89.2%
viability, T/C (second compound 0.1 µM, first compound 3.16 µM): 86.8%
viability, T/C (second compound 0.1 µM, first compound 10 µM): 116%
viability, T/C [17]: 88.2%
viability, T/C [18]: 96.9%
viability, T/C [19]: 106%
viability, T/C [20]: 92.9%
viability, T/C (second compound 0.316 µM, first compound 3.16 µM): 82.2%
viability, T/C (second compound 0.316 µM, first compound 10 µM): 107%
viability, T/C [21]: 93.6%
viability, T/C [22]: 101%
viability, T/C [23]: 103%
viability, T/C [24]: 92.6%
viability, T/C (second compound 1 µM, first compound 3.16 µM): 91.2%
viability, T/C (second compound 1 µM, first compound 10 µM): 112%

pIC50 (second compound 0.00949 µM): < 6.00
pIC50 (second compound 0.03 µM): < 6.00
pIC50 (second compound 0.0949 µM): < 6.00
pIC50 (second compound 0.3 µM): < 6.00
pIC50 (second compound 0.949 µM): < 6.00
pIC50 (second compound 3 µM): < 6.00
Structure (SMILES): CCN1CCN(Cc2ccc(Nc3ncc(F)c(-c4cc(F)c5nc(C)n(C(C)C)c5c4)n3)nc2)CC1 + CCN1C(C(=O)NC23CCC(C(=O)O)(CC2)CC3)C(c2cccc(Cl)c2F)C2(C(=O)Nc3cc(Cl)ccc32)C12CCCCC2
viability, T/C (second compound 0.00949 µM, first compound 0.00316 µM): 85.7%
viability, T/C (second compound 0.00949 µM, first compound 0.01 µM): 89.3%
viability, T/C (second compound 0.00949 µM, first compound 0.0316 µM): 76.2%
viability, T/C (second compound 0.00949 µM, first compound 0.1 µM): 88.8%
viability, T/C (second compound 0.00949 µM, first compound 0.316 µM): 60.2%
viability, T/C (second compound 0.00949 µM, first compound 1 µM): 71%
viability, T/C (second compound 0.03 µM, first compound 0.00316 µM): 124%
viability, T/C (second compound 0.03 µM, first compound 0.01 µM): 84.4%
viability, T/C (second compound 0.03 µM, first compound 0.0316 µM): 91.5%
viability, T/C (second compound 0.03 µM, first compound 0.1 µM): 105%
viability, T/C (second compound 0.03 µM, first compound 0.316 µM): 93.4%
viability, T/C (second compound 0.03 µM, first compound 1 µM): 76.9%
viability, T/C (second compound 0.0949 µM, first compound 0.00316 µM): 99.8%
viability, T/C (second compound 0.0949 µM, first compound 0.01 µM): 95.7%
viability, T/C (second compound 0.0949 µM, first compound 0.0316 µM): 86.2%
viability, T/C (second compound 0.0949 µM, first compound 0.1 µM): 81.7%
viability, T/C (second compound 0.0949 µM, first compound 0.316 µM): 67.7%
viability, T/C (second compound 0.0949 µM, first compound 1 µM): 58.8%
viability, T/C (second compound 0.3 µM, first compound 0.00316 µM): 97.6%
viability, T/C (second compound 0.3 µM, first compound 0.01 µM): 83.5%
viability, T/C (second compound 0.3 µM, first compound 0.0316 µM): 69.1%
viability, T/C (second compound 0.3 µM, first compound 0.1 µM): 61.9%
viability, T/C (second compound 0.3 µM, first compound 0.316 µM): 64.2%
viability, T/C (second compound 0.3 µM, first compound 1 µM): 104%
viability, T/C (second compound 0.949 µM, first compound 0.00316 µM): 87.4%
viability, T/C (second compound 0.949 µM, first compound 0.01 µM): 72.6%
viability, T/C (second compound 0.949 µM, first compound 0.0316 µM): 84.8%
viability, T/C (second compound 0.949 µM, first compound 0.1 µM): 80.9%
viability, T/C (second compound 0.949 µM, first compound 0.316 µM): 81.2%
viability, T/C (second compound 0.949 µM, first compound 1 µM): 63%
viability, T/C (second compound 3 µM, first compound 0.00316 µM): 71.4%
viability, T/C (second compound 3 µM, first compound 0.01 µM): 69.9%
viability, T/C (second compound 3 µM, first compound 0.0316 µM): 78.6%
viability, T/C (second compound 3 µM, first compound 0.1 µM): 89.2%
viability, T/C (second compound 3 µM, first compound 0.316 µM): 72.7%
viability, T/C (second compound 3 µM, first compound 1 µM): 66.4%

pIC50 (second compound 0.00316 µM): 6.50
pIC50 (second compound 0.01 µM): 6.65
pIC50 (second compound 0.0316 µM): 6.55
pIC50 (second compound 0.1 µM): 6.62
pIC50 (second compound 0.316 µM): 6.60
pIC50 (second compound 1 µM): 6.57
Structure (SMILES): O=C(c1ccc(F)c(F)c1Nc1ccc(I)cc1F)N1CC(O)([C@@H]2CCCCN2)C1 + CNC(C)C(=O)NC1CN(S(=O)(=O)c2cccc(S(=O)(=O)N3CCC4CCC(C(=O)NC(c5ccccc5)c5ccccc5)N4C(=O)C(NC(=O)C(C)NC)C3)c2)CCC2CCC(C(=O)NC(c3ccccc3)c3ccccc3)N2C1=O
viability, T/C (second compound 0.00316 µM, first compound 0.00316 µM): 119%
viability, T/C (second compound 0.00316 µM, first compound 0.01 µM): 133%
viability, T/C [1]: 95.9%
viability, T/C [2]: 111%
viability, T/C [3]: 49.7%
viability, T/C [4]: 13.8%
viability, T/C (second compound 0.01 µM, first compound 0.00316 µM): 93.9%
viability, T/C (second compound 0.01 µM, first compound 0.01 µM): 112%
viability, T/C [5]: 74.7%
viability, T/C [6]: 86.2%
viability, T/C [7]: 34.6%
viability, T/C [8]: 18.8%
viability, T/C (second compound 0.0316 µM, first compound 0.00316 µM): 121%
viability, T/C (second compound 0.0316 µM, first compound 0.01 µM): 107%
viability, T/C [9]: 79.7%
viability, T/C [10]: 101%
viability, T/C [11]: 44.2%
viability, T/C [12]: 14.3%
viability, T/C (second compound 0.1 µM, first compound 0.00316 µM): 99.4%
viability, T/C (second compound 0.1 µM, first compound 0.01 µM): 86.4%
viability, T/C [13]: 107%
viability, T/C [14]: 84.5%
viability, T/C [15]: 39.2%
viability, T/C [16]: 13.5%
viability, T/C (second compound 0.316 µM, first compound 0.00316 µM): 80.6%
viability, T/C (second compound 0.316 µM, first compound 0.01 µM): 122%
viability, T/C [17]: 86.8%
viability, T/C [18]: 79.2%
viability, T/C [19]: 43.5%
viability, T/C [20]: 16%
viability, T/C (second compound 1 µM, first compound 0.00316 µM): 77.5%
viability, T/C (second compound 1 µM, first compound 0.01 µM): 89.2%
viability, T/C [21]: 117%
viability, T/C [22]: 79.7%
viability, T/C [23]: 45.4%
viability, T/C [24]: 18.6%
